{"source": "the kinase profiling compilation of Christmann-Franck et al. (2016)", "experiment_in_all_cases": "radiometric filter-binding kinase assay", "key": {"MAPK12 (human)": {"molecular_target": "MAPK12 (human) (UniProt P53778)", "conditions": "compound 10.0 µM"}, "PIM1 (human)": {"molecular_target": "PIM1 (human) (UniProt P11309)"}, "MAP3K7 TAB1 (human)": {"molecular_target": "MAP3K7 TAB1 (human) (UniProt Q15750+O43318)"}, "JAK2 JH1 JH2 (human)": {"molecular_target": "JAK2 JH1 JH2 (human) (UniProt O60674)"}, "MELK (human)": {"molecular_target": "MELK (human) (UniProt Q14680)"}, "MAPK8 (human)": {"molecular_target": "MAPK8 (human) (UniProt P45983)", "sequence (P45983 whole entry, looked up)": "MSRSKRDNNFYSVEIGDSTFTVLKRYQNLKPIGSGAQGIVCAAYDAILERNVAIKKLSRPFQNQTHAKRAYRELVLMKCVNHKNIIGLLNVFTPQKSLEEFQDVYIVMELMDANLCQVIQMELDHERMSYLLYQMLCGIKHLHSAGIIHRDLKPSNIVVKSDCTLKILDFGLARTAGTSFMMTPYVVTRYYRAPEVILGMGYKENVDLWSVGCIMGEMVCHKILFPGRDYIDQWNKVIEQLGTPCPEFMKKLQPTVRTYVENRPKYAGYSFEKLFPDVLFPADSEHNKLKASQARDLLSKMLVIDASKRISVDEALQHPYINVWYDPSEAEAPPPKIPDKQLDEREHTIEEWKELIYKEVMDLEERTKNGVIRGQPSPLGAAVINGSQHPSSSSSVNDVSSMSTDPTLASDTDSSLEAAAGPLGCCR"}, "RPS6KA3 KD1 KD2 (human)": {"molecular_target": "RPS6KA3 KD1 KD2 (human) (UniProt P51812)"}, "CSNK1D (human)": {"molecular_target": "CSNK1D (human) (UniProt P48730)", "sequence (P48730 whole entry, looked up)": "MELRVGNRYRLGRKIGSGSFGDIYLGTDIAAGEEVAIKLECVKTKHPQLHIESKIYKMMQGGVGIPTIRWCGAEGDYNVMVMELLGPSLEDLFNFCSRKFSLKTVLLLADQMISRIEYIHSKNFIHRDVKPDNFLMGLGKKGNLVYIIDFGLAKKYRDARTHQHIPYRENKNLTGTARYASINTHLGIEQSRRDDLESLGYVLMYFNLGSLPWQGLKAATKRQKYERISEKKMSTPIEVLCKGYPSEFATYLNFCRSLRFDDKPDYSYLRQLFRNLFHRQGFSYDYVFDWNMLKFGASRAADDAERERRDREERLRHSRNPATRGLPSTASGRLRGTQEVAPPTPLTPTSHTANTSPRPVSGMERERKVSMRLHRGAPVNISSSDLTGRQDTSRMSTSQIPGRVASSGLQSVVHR"}, "BRSK1 (human)": {"molecular_target": "BRSK1 (human) (UniProt Q8TDC3)"}, "BRSK2 (human)": {"molecular_target": "BRSK2 (human) (UniProt Q8IWQ3)", "sequence (Q8IWQ3 whole entry, looked up)": "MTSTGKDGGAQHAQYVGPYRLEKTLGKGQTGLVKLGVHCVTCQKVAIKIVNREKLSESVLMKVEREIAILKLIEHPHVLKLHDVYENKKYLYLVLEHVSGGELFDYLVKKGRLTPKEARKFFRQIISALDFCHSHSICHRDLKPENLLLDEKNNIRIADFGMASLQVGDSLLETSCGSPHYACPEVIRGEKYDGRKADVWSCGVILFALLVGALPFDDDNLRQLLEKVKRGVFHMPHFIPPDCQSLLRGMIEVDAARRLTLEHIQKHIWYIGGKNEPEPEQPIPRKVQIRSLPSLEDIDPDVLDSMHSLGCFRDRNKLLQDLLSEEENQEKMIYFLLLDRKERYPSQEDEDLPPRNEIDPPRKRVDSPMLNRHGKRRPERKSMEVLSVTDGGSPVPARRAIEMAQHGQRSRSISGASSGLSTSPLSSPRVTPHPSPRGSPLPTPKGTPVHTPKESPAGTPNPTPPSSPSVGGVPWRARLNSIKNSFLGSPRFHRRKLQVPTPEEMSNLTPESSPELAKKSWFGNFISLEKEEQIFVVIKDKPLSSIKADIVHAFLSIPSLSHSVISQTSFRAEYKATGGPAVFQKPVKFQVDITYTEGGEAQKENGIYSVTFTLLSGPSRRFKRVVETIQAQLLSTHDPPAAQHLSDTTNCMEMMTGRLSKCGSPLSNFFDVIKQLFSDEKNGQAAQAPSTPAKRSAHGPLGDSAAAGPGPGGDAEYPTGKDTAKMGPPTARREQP"}, "EPHB2 (human)": {"molecular_target": "EPHB2 (human) (UniProt P29323)"}, "[1]": {"tested_on": "RPS6KB1 (human), P23443 [T412E]"}, "MYLK (human)": {"molecular_target": "MYLK (human) (UniProt Q15746)", "sequence (Q15746 whole entry, looked up)": "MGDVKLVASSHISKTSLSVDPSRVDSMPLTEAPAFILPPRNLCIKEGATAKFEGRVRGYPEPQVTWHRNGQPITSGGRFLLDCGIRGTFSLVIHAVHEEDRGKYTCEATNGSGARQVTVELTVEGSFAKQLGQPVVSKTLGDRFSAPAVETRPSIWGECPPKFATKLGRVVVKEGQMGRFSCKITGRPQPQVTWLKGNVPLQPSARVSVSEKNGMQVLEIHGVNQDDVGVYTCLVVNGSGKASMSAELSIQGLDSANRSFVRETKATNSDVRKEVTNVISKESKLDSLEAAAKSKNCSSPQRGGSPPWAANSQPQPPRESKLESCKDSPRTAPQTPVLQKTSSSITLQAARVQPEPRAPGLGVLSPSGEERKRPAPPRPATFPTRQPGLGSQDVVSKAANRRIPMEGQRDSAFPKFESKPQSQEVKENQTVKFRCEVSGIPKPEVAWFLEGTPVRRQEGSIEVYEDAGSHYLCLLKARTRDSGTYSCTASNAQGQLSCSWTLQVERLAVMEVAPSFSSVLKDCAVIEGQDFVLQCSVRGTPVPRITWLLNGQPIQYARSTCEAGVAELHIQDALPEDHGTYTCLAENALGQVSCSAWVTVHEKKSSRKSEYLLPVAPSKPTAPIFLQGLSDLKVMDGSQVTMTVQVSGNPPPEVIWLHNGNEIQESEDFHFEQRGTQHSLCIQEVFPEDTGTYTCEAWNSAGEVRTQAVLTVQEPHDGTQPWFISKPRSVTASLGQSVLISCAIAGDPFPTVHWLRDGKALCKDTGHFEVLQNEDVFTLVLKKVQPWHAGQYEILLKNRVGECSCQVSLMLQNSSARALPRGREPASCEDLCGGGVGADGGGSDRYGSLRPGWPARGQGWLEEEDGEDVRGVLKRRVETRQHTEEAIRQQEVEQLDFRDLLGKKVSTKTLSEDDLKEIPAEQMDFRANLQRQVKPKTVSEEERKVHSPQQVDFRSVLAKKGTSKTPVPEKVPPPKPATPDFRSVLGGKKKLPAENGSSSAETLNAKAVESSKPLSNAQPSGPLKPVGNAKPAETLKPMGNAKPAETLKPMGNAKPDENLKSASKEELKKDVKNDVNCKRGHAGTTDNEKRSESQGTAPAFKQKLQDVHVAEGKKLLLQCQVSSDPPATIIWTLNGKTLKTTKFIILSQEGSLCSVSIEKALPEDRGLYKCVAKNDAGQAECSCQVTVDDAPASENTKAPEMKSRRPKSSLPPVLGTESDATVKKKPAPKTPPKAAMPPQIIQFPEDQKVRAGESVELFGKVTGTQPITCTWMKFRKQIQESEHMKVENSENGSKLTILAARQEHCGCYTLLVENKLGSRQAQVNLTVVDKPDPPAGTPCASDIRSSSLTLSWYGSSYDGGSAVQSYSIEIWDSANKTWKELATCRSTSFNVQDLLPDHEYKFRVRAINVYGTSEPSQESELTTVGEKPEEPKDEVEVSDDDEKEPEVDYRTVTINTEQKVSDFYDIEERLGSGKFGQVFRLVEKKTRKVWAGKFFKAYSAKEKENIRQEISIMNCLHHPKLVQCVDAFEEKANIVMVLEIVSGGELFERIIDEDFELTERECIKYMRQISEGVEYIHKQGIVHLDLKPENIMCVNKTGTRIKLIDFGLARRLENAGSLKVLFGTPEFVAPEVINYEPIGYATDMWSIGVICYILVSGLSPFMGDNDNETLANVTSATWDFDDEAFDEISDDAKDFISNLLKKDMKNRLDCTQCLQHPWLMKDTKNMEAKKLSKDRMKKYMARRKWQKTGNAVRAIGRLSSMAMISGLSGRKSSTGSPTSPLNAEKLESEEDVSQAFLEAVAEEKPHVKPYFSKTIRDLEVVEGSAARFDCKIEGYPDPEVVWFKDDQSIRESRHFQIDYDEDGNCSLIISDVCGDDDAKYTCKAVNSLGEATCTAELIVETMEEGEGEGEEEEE"}, "[2]": {"tested_on": "SGK1 (human), O00141 [S422D]"}, "CSK (human)": {"molecular_target": "CSK (human) (UniProt P41240)", "sequence (P41240 whole entry, looked up)": "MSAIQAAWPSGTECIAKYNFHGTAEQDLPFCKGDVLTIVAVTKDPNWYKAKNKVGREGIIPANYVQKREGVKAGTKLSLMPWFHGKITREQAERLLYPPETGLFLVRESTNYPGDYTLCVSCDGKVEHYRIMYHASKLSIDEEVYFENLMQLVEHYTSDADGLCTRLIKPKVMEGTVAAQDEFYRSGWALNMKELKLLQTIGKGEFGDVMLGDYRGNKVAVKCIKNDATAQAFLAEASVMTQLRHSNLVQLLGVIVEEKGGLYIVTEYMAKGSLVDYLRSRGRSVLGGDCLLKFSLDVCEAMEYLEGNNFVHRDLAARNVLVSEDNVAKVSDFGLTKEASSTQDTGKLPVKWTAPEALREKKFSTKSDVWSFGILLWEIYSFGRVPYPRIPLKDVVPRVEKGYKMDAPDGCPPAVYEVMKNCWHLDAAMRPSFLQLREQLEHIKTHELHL"}, "FGFR1 (human)": {"molecular_target": "FGFR1 (human) (UniProt P11362)"}, "CLK2 (human)": {"molecular_target": "CLK2 (human) (UniProt P49760)", "sequence (P49760 whole entry, looked up)": "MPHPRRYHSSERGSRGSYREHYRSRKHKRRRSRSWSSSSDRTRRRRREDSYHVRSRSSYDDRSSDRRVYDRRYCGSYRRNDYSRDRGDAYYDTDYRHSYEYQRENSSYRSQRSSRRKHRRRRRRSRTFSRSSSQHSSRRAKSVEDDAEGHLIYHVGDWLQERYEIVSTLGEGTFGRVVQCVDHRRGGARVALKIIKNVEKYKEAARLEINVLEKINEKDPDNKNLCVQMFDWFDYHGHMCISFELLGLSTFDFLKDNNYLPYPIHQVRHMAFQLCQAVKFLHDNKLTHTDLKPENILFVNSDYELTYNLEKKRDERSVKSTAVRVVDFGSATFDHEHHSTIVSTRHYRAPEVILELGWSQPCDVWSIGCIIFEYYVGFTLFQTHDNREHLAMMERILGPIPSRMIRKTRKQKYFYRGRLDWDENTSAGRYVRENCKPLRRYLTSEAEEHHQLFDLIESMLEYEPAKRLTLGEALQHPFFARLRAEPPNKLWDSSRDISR"}, "[3]": {"tested_on": "PAK2 (human), Q13177 [T402E]", "sequence (Q13177 whole entry T402E, looked up)": "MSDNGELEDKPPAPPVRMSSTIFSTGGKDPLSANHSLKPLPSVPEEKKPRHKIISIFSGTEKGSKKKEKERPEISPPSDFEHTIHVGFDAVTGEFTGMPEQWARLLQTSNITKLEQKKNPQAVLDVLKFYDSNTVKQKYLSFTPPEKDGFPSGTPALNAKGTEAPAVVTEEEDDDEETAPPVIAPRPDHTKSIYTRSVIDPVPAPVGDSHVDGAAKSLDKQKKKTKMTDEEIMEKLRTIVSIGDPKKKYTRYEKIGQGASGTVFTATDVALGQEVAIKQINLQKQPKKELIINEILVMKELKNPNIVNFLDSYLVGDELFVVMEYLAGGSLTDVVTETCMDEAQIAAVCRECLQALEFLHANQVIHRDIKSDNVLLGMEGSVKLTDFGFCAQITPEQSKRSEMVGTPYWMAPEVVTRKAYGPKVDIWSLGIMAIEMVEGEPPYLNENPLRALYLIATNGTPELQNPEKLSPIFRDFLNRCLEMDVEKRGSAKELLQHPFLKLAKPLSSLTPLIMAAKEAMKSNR"}}}
{"smiles": "NC1(c2ccc(-c3nc4ccn5c(=O)[nH]nc5c4cc3-c3ccccc3)cc2)CCC1", "values": [{"measurement": "residual activity", "setting": "MAPK12 (human)", "value": 101, "unit": "%"}, {"measurement": "residual activity", "setting": "PIM1 (human); compound 0.1 µM", "value": 102, "unit": "%"}, {"measurement": "residual activity", "setting": "PIM1 (human); compound 1.0 µM", "value": 93, "unit": "%"}, {"measurement": "residual activity", "setting": "PIM1 (human); compound 10.0 µM", "value": 68, "unit": "%"}, {"measurement": "residual activity", "setting": "MAP3K7 TAB1 (human); compound 0.1 µM", "value": 81, "unit": "%"}, {"measurement": "residual activity", "setting": "MAP3K7 TAB1 (human); compound 1.0 µM", "value": 107, "unit": "%"}, {"measurement": "residual activity", "setting": "MAP3K7 TAB1 (human); compound 10.0 µM", "value": 49, "unit": "%"}, {"measurement": "residual activity", "setting": "JAK2 JH1 JH2 (human); compound 1.0 µM", "value": 84, "unit": "%"}, {"measurement": "residual activity", "setting": "JAK2 JH1 JH2 (human); compound 10.0 µM", "value": 94, "unit": "%"}, {"measurement": "residual activity", "setting": "MELK (human); compound 0.1 µM", "value": 80, "unit": "%"}, {"measurement": "residual activity", "setting": "MELK (human); compound 1.0 µM", "value": 75, "unit": "%"}, {"measurement": "residual activity", "setting": "MELK (human); compound 10.0 µM", "value": 80, "unit": "%"}, {"measurement": "residual activity", "setting": "MAPK8 (human); compound 0.1 µM", "value": 100, "unit": "%"}, {"measurement": "residual activity", "setting": "MAPK8 (human); compound 1.0 µM", "value": 100, "unit": "%"}, {"measurement": "residual activity", "setting": "MAPK8 (human); compound 10.0 µM", "value": 87, "unit": "%"}, {"measurement": "residual activity", "setting": "RPS6KA3 KD1 KD2 (human); compound 0.1 µM", "value": 91, "unit": "%"}, {"measurement": "residual activity", "setting": "RPS6KA3 KD1 KD2 (human); compound 1.0 µM", "value": 90, "unit": "%"}, {"measurement": "residual activity", "setting": "RPS6KA3 KD1 KD2 (human); compound 10.0 µM", "value": 81, "unit": "%"}, {"measurement": "residual activity", "setting": "CSNK1D (human); compound 0.1 µM", "value": 119, "unit": "%"}, {"measurement": "residual activity", "setting": "CSNK1D (human); compound 1.0 µM", "value": 100, "unit": "%"}, {"measurement": "residual activity", "setting": "CSNK1D (human); compound 10.0 µM", "value": 91, "unit": "%"}, {"measurement": "residual activity", "setting": "BRSK1 (human); compound 0.1 µM", "value": 115, "unit": "%"}, {"measurement": "residual activity", "setting": "BRSK1 (human); compound 1.0 µM", "value": 112, "unit": "%"}, {"measurement": "residual activity", "setting": "BRSK1 (human); compound 10.0 µM", "value": 87, "unit": "%"}, {"measurement": "residual activity", "setting": "BRSK2 (human); compound 0.1 µM", "value": 102, "unit": "%"}, {"measurement": "residual activity", "setting": "BRSK2 (human); compound 1.0 µM", "value": 88, "unit": "%"}, {"measurement": "residual activity", "setting": "BRSK2 (human); compound 10.0 µM", "value": 94, "unit": "%"}, {"measurement": "residual activity", "setting": "EPHB2 (human); compound 0.1 µM", "value": 107, "unit": "%"}, {"measurement": "residual activity", "setting": "EPHB2 (human); compound 1.0 µM", "value": 93, "unit": "%"}, {"measurement": "residual activity", "setting": "EPHB2 (human); compound 10.0 µM", "value": 74, "unit": "%"}, {"measurement": "residual activity", "setting": "[1]; compound 0.1 µM", "value": 84, "unit": "%"}, {"measurement": "residual activity", "setting": "[1]; compound 1.0 µM", "value": 84, "unit": "%"}, {"measurement": "residual activity", "setting": "[1]; compound 10.0 µM", "value": 84, "unit": "%"}, {"measurement": "residual activity", "setting": "MYLK (human); compound 0.1 µM", "value": 87, "unit": "%"}, {"measurement": "residual activity", "setting": "MYLK (human); compound 1.0 µM", "value": 85, "unit": "%"}, {"measurement": "residual activity", "setting": "MYLK (human); compound 10.0 µM", "value": 72, "unit": "%"}, {"measurement": "residual activity", "setting": "[2]; compound 0.1 µM", "value": 90, "unit": "%"}, {"measurement": "residual activity", "setting": "[2]; compound 1.0 µM", "value": 85, "unit": "%"}, {"measurement": "residual activity", "setting": "[2]; compound 10.0 µM", "value": 63, "unit": "%"}, {"measurement": "residual activity", "setting": "CSK (human); compound 0.1 µM", "value": 92, "unit": "%"}, {"measurement": "residual activity", "setting": "CSK (human); compound 1.0 µM", "value": 91, "unit": "%"}, {"measurement": "residual activity", "setting": "CSK (human); compound 10.0 µM", "value": 85, "unit": "%"}, {"measurement": "residual activity", "setting": "FGFR1 (human); compound 0.1 µM", "value": 100, "unit": "%"}, {"measurement": "residual activity", "setting": "FGFR1 (human); compound 1.0 µM", "value": 95, "unit": "%"}, {"measurement": "residual activity", "setting": "FGFR1 (human); compound 10.0 µM", "value": 70, "unit": "%"}, {"measurement": "residual activity", "setting": "CLK2 (human); compound 0.1 µM", "value": 103, "unit": "%"}, {"measurement": "residual activity", "setting": "CLK2 (human); compound 1.0 µM", "value": 81, "unit": "%"}, {"measurement": "residual activity", "setting": "CLK2 (human); compound 10.0 µM", "value": 67, "unit": "%"}, {"measurement": "residual activity", "setting": "[3]; compound 0.1 µM", "value": 98, "unit": "%"}, {"measurement": "residual activity", "setting": "[3]; compound 1.0 µM", "value": 94, "unit": "%"}, {"measurement": "residual activity", "setting": "[3]; compound 10.0 µM", "value": 103, "unit": "%"}]}
